Laboratory results published in patent US7101872B2, “Farnesyl dibenzodiazepinone, and processes for its production” (Ecopia BioSciences, Inc., priority 2003, dated 2006).

Tests used:
Assay in all cases: NCI panel SRB growth inhibition
Type in all cases: cell-based
K-562 = conditions: Homo sapiens, K562, K-562, Leukemia, 48 h
Method: (§1) The operation of this unique screen utilizes […] different human tumor cell lines, representing leukemia, melanoma and cancers of the lung, colon, brain, ovary, breast, prostate, and kidney.
(§2) Culture conditions and plating: The human tumor cell lines of the cancer-screening panel were grown in RPMI 1640 medium containing 5% fetal bovine serum and 2 mM L-glutamine. For a typical screening experiment, cells were inoculated into 96 well microtiter plates in 100 μL at plating densities ranging from 5,000 to 40,000 cells/well depending on the doubling time of individual cell lines (Table 5). After cell inoculation, the microtiter plates were incubated at 37° C., 5% CO2, 95% air and 100% relative humidity for 24 h prior to addition of experimental drugs. After 24 h, two plates of each cell line were fixed in situ with TCA, to represent a measurement of the cell population for each cell line at the time of drug addition (Tz). Evaluation of inhibitory activity on cell proliferation: ECO-04601 was provided as a lyophilized powder with an estimated purity of 90+%. The compound was stored at −20° C. until day of use. ECO-04601 was solubilized in dimethyl sulfoxide at 400-fold the desired final maximum test concentration. At the time of drug addition, an aliquot of frozen concentrate was thawed and diluted to twice the desired final maximum test concentration with complete medium containing 50 μg/mL gentamicin. Additional four, 10-fold or Y2 log serial dilutions were made to provide a total of five drug concentrations plus control. Aliquots of 100 μl of these different drug dilutions were added to the appropriate microtiter wells already containing 100 μl of medium, resulting in the required final drug concentrations (8.0×10^−5 M to 8.0×10^−9 M).
(§3) Following drug addition, the plates were incubated for an additional 48 h at 37° C., 5% CO2, 95% air, and 100% relative humidity. For adherent cells, the assay was terminated by the addition of cold TCA. Cells were fixed in situ by the gentle addition of 50 μl of cold 50% (w/v) TCA (final concentration, 10% TCA) and incubated for 60 minutes at 4° C. Supernatants were discarded, and the plates were washed five times with tap water and air-dried. Sulforhodamine B (SRB) solution (100 μl) at 0.4% (w/v) in 1% acetic acid was added to each well, and plates were incubated for 10 minutes at room temperature. After staining, unbound dye was removed by washing five times with 1% acetic acid and the plates were air-dried. Bound stain was subsequently solubilized with 10 mM trizma base, and the absorbance was read on an automated plate reader at a wavelength of 515 nm. For suspension cells, the methodology was the same except that the assay was terminated by fixing settled cells at the bottom of the wells by gently adding 50 μl of 80% TCA (final concentration, 16% TCA).
(§4) The growth inhibitory activity of ECO-04601 was measured by NCI utilizing the GI50 value, rather than the classical IC50 value.

DU-145 = conditions: Homo sapiens, DU-145, Prostate, 48 h
Method: as §1, §2, §3, §4

MDA-MB-435 = conditions: Homo sapiens, MDA-MB-435, Breast, 48 h
Method: as §1, §2, §3, §4

UACC-257 = conditions: Homo sapiens, UACC-257, Melanoma, 48 h
Method: as §1, §2, §3, §4

SNB-75 = conditions: Homo sapiens, SNB-75, CNS, 48 h
Method: as §1, §2, §3, §4

MCF7 = conditions: Homo sapiens, MCF7, Breast, 48 h
Method: as §1, §2, §3, §4

CCRF-CEM = conditions: Homo sapiens, Leukemia, 48 h
Method: as §1, §2, §3, §4

NCI-H226 = conditions: Homo sapiens, NCI-H226, Non-Small Cell Lung, 48 h
Method: as §1, §2, §3, §4

SN12C = conditions: Homo sapiens, Renal, 48 h
Method: as §1, §2, §3, §4

SK-OV-3 = conditions: Homo sapiens, SK-OV-3, Ovarian, 48 h
Method: as §1, §2, §3, §4

SK-MEL-28 = conditions: Homo sapiens, SK-MEL-28, Melanoma, 48 h
Method: as §1, §2, §3, §4

A549/ATCC = conditions: Homo sapiens, Non-Small Cell Lung, 48 h
Method: as §1, §2, §3, §4

RXF 393 = conditions: Homo sapiens, RXF 393, Renal, 48 h
Method: as §1, §2, §3, §4

IGR-OV1 = conditions: Homo sapiens, IGROV-1, IGR-OV1, Ovarian, 48 h
Method: as §1, §2, §3, §4

COLO 205 = conditions: Homo sapiens, COLO 205, Colon, 48 h
Method: as §1, §2, §3, §4

SF-295 = conditions: Homo sapiens, SF-295, CNS, 48 h
Method: as §1, §2, §3, §4

LOX IMVI = conditions: Homo sapiens, Melanoma, 48 h
Method: as §1, §2, §3, §4

M14 = conditions: Homo sapiens, M14, Melanoma, 48 h
Method: as §1, §2, §3, §4

Compound `CC(C)=CCC/C(C)=C/CC/C(C)=C/CN1C(=O)c2cccc(O)c2Nc2c(O)cc(O)cc21` [ECO-04601, 10-farnesyl-4,6,8-trihydroxy-dibenzodiazepin-11-one] has a GI50 (K-562) of 1.43 µM, a GI50 (DU-145) of 3.56 µM and a GI50 (MDA-MB-435) of 15.3 µM. It also gave a GI50 (UACC-257) of 2.31 µM, a GI50 (SNB-75) of 7.71 µM and a GI50 (MCF7) of 10.1 µM. The GI50 (CCRF-CEM) was 1.08 µM, the GI50 (NCI-H226) was 2 µM and the GI50 (SN12C) was 3.85 µM. It also gave a GI50 (SK-OV-3) of 4 µM, a GI50 (SK-MEL-28) of 11.6 µM and a GI50 (A549/ATCC) of 9.1 µM. For the same compound, the GI50 (RXF 393) was 7.71 µM, the GI50 (IGR-OV1) was 3.11 µM and the GI50 (COLO 205) was 12.7 µM. It also gave a GI50 (SF-295) of 12.7 µM, a GI50 (LOX IMVI) of 4.53 µM and a GI50 (M14) of 4.57 µM.
